# Reference: US5373014A, “Rapamycin oximes” (American Home Products Corporation, priority 1993, dated 1994)
# “And” between values parts separate entries of the source, which are not always exact repeats. Identical values can stand only once. Like-named read-outs stand apart in the source and are kept apart here.
# Columns and labels:
# [1] = system: pinch skin graft from male BALB/c donors transplanted to male C3 H(H-2K) recipients; experiment: survival time of pinch skin graft (allograft); format: in vivo, male C3 H(H-2K) recipients (mice); conditions: 4 mg/kg, intraperitoneally or orally; untreated controls rejected within 6-7 days
# Description: (§1) Immunosuppressive activity for representative compounds of this invention was evaluated in an in vitro standard pharmacological test procedure to measure lymphocyte proliferation (LAF) and in an in vivo standard pharmacological test procedure which evaluated the survival time of a pinch skin graft.
# Representative compounds of this invention were also evaluated in an in vivo test procedure designed to determine the survival time of pinch skin graft from male BALB/c donors transplanted to male C3 H(H-2K) recipients. The method is adapted from Billingham R. E. and Medawar P. B., J. Exp. Biol. 28:385-402, (1951 ). Briefly, a pinch skin graft from the donor was grafted on the dorsum of the recipient as a allograft, and an isograft was used as control in the same region. The recipients were treated with either varying concentrations of test compounds intraperitoneally or orally. Rapamycin was used as a test control. Untreated recipients serve as rejection control. The graft was monitored daily and observations were recorded until the graft became dry and formed a blackened scab. This was considered as the rejection day. The mean graft survival time (number of days±S.D.) of the drug treatment group was compared with the control group. […] Results are expressed as the mean survival time in days. Untreated (control) pinch skin grafts are usually rejected within 6-7 days. […]
# [2] = system: cells from the thymus of normal BALB/c mice (lymphocyte proliferation); experiment: comitogen-induced thymocyte proliferation procedure (LAF); format: cell-based; conditions: read-out: LAF IC50
# Description: as §1
# Briefly, cells from the thymus of normal BALB/c mice are cultured for 72 hours with PHA and IL-1 and pulsed with tritiated thymidine during the last six hours. […] Cells are harvested and incorporated radioactivity is determined. Inhibition of lymphoproliferation is assessed as percent change in counts per minute from nondrug treated controls. For each compound evaluated, rapamycin was also evaluated for the purpose of comparison. An IC50 was obtained for each test compound as well as for rapamycin. […] The results obtained are provided as an IC50.
# [3] = stability under physiological conditions (degradative hydrolysis in phosphate buffer); format: physicochemical
# Description: The table below provides the […] in 0.1M phosphate buffer (pH 7.4) at 37° C.
# [4] = Mus musculus, Lymphocyte, 72 h culture with PHA and IL-1, tritiated thymidine during last six hours
# [5] = 72 h culture with PHA and IL-1, tritiated thymidine during last six hours
smiles,measurement,setting,value
"CO/N=C1/C[C@@H]([C@H](C)C[C@@H]2CC[C@@H](OC(=O)CC[C@H](NC(=O)OC(C)(C)C)C(=O)OC(C)(C)C)[C@H](OC)C2)OC(=O)[C@@H]2CCCCN2C(=O)C(=O)[C@]2(O)O[C@@H](CC[C@H]2C)C[C@H](OC)/C(C)=C/C=C/C=C/[C@@H](C)C[C@@H](C)C(=O)[C@H](OC)[C@H](O)/C(C)=C/[C@H]1C [Example 10, Rapamycin (Z)-27-(O-methoxime), 42-ester with (S)-5-tertbutoxy-4-tertbutoxycarbonylamino-5-oxo-pentanoic acid]",Skin Graft mean survival time (days ± SD),[1],10.0 ± 0.2 days and 11.2 ± 0.8 days
same,IC50,[2]; [4],4.1 nM
same,half-life,"[3]; 0.1m phosphate buffer, pH 7.4",264 h
same,stability toward degradation compared with rapamycin or the corresponding oxime or ester alone,[3]; pH 7.4,"significantly more stable toward degradation than rapamycin, or the corresponding oxime or ester alone"
"CO[C@H]1C[C@@H]2CC[C@@H](C)[C@@](O)(O2)C(=O)C(=O)N2CCCC[C@H]2C(=O)O[C@H]([C@H](C)C[C@@H]2CC[C@@H](OC(=O)CC[C@H](NC(=O)OC(C)(C)C)C(=O)OC(C)(C)C)[C@H](OC)C2)C/C(=N/OCC#N)[C@H](C)/C=C(\C)[C@@H](O)[C@@H](OC)C(=O)[C@H](C)C[C@H](C)/C=C/C=C/C=C/1C [Example 3, Rapamycin (Z)-27-O-(cyanomethyl)-oxime, 42-ester with N-(tert-butoxycarbonyl)-α-O-(tert-butyl)-L-glutamic Acid]",IC50,[2]; [4],432 nM
"CO/N=C1/C[C@@H]([C@H](C)C[C@@H]2CC[C@@H](OC(=O)CN(C)C)[C@H](OC)C2)OC(=O)[C@@H]2CCCCN2C(=O)C(=O)[C@]2(O)O[C@@H](CC[C@H]2C)C[C@H](OC)/C(C)=C/C=C/C=C/[C@@H](C)C[C@@H](C)C(=O)[C@H](OC)[C@H](O)/C(C)=C/[C@H]1C [Example 7, Rapamycin (Z)-27-(O-methoxime), 42-ester with 2-N,N-dimethylglycine]",IC50,[2]; [4],291 nM
"CO/N=C1\C[C@@H]([C@H](C)C[C@@H]2CC[C@@H](OC(=O)Oc3ccc([N+](=O)[O-])cc3)[C@H](OC)C2)OC(=O)[C@@H]2CCCCN2C(=O)C(=O)[C@]2(O)O[C@@H](CC[C@H]2C)C[C@H](OC)/C(C)=C/C=C/C=C/[C@@H](C)C[C@@H](C)C(=O)[C@H](OC)[C@H](O)/C(C)=C/[C@H]1C [Example 9, Rapamycin (E)-27-(O-methoxime), 42-ester with (4-nitrophenoxy)carbonic acid]",IC50,[2]; [5],47 nM
same,IC50,[2]; [4],77 nM
"CO/N=C1/C[C@@H]([C@H](C)C[C@@H]2CC[C@@H](OC(=O)COCC(=O)OCc3ccccc3)[C@H](OC)C2)OC(=O)[C@@H]2CCCCN2C(=O)C(=O)[C@]2(O)O[C@@H](CC[C@H]2C)C[C@H](OC)/C(C)=C/C=C/C=C/[C@@H](C)C[C@@H](C)C(=O)[C@H](OC)[C@H](O)/C(C)=C/[C@H]1C [Example 8, Rapamycin (Z)-27-(O-methoxime), 42-ester with (5-benzyloxycarbonylmethoxy) acetic acid]",IC50,[2]; [4],421 nM
"CO/N=C1/C[C@@H]([C@H](C)C[C@@H]2CC[C@@H](O)[C@H](OC)C2)OC(=O)[C@@H]2CCCCN2C(=O)C(=O)[C@]2(O)O[C@@H](CC[C@H]2C)C[C@H](OC)/C(C)=C/C=C/C=C/[C@@H](C)C[C@@H](C)C(=O)[C@H](OC)[C@H](O)/C(C)=C/[C@H]1C [Rapamycin (Z)-27-(O-methoxime), rapamycin (Z)-27-(O-methoxime)]",half-life,"[3]; 0.1m phosphate buffer, pH 7.4",156 h
"CO[C@H]1C[C@@H]2CC[C@@H](C)[C@@](O)(O2)C(=O)C(=O)N2CCCC[C@H]2C(=O)O[C@H]([C@H](C)C[C@@H]2CC[C@@H](OC(=O)CC[C@H](NC(=O)OC(C)(C)C)C(=O)OC(C)(C)C)[C@H](OC)C2)CC(=O)[C@H](C)/C=C(\C)[C@@H](O)[C@@H](OC)C(=O)[C@H](C)C[C@H](C)/C=C/C=C/C=C/1C [rapamycin 42-ester with (S)-5-tertbutoxy-4-tertbutoxycarbonylamino-5-oxo-pentanoic acid, reference compound]",half-life,"[3]; 0.1m phosphate buffer, pH 7.4",24 h
"CO/N=C1\C[C@@H]([C@H](C)C[C@@H]2CC[C@@H](OC(=O)CC[C@H](NC(=O)OC(C)(C)C)C(=O)OC(C)(C)C)[C@H](OC)C2)OC(=O)[C@@H]2CCCCN2C(=O)C(=O)[C@]2(O)O[C@@H](CC[C@H]2C)C[C@H](OC)/C(C)=C/C=C/C=C/[C@@H](C)C[C@@H](C)C(=O)[C@H](OC)[C@H](O)/C(C)=C/[C@H]1C [Example 11, Rapamycin (E)-27-(O-methoxime), 42-ester with (S)-5-tertbutoxy-4-tertbutoxycarbonylamino-5-oxo-pentanoic acid]",IC50,[2]; [5],321 nM
same,IC50,[2]; [4],372 nM
CO[C@H]1C[C@@H]2CC[C@@H](C)[C@@](O)(O2)C(=O)C(=O)N2CCCC[C@H]2C(=O)O[C@H]([C@H](C)C[C@@H]2CC[C@@H](O)[C@H](OC)C2)CC(=O)[C@H](C)/C=C(\C)[C@@H](O)[C@@H](OC)C(=O)[C@H](C)C[C@H](C)/C=C/C=C/C=C/1C [Rapamycin],Skin Graft mean survival time (days ± SD),[1],12.0 ± 1.7 days
same,IC50,"[2]; Mus musculus, Lymphocyte",0.4 to 5.1 nM
same,half-life,"[3]; 0.1M phosphate buffer (pH 7.4) at 37° C., read-out: Half Life (converted)",13 h
"CO/N=C1\C[C@@H]([C@H](C)C[C@@H]2CC[C@@H](O)[C@H](OC)C2)OC(=O)[C@@H]2CCCCN2C(=O)C(=O)[C@]2(O)O[C@@H](CC[C@H]2C)C[C@H](OC)/C(C)=C/C=C/C=C/[C@@H](C)C[C@@H](C)C(=O)[C@H](OC)[C@H](O)/C(C)=C/[C@H]1C [Rapamycin (E)-27-(O-methoxime), rapamycin (E)-27-(O-methoxime)]",half-life,"[3]; 0.1m phosphate buffer, pH 7.4",59 h
